Structures are written as SMILES.

Data on 32 compounds can be found in patent US20250026766A1, “Thiazolopyridyl Amide Derivatives as DNA Polymerase Theta Inhibitors” (BeiGene, Ltd., priority 2022, published 2025).

Pol Theta (1-894), sequence (O75417 1-894): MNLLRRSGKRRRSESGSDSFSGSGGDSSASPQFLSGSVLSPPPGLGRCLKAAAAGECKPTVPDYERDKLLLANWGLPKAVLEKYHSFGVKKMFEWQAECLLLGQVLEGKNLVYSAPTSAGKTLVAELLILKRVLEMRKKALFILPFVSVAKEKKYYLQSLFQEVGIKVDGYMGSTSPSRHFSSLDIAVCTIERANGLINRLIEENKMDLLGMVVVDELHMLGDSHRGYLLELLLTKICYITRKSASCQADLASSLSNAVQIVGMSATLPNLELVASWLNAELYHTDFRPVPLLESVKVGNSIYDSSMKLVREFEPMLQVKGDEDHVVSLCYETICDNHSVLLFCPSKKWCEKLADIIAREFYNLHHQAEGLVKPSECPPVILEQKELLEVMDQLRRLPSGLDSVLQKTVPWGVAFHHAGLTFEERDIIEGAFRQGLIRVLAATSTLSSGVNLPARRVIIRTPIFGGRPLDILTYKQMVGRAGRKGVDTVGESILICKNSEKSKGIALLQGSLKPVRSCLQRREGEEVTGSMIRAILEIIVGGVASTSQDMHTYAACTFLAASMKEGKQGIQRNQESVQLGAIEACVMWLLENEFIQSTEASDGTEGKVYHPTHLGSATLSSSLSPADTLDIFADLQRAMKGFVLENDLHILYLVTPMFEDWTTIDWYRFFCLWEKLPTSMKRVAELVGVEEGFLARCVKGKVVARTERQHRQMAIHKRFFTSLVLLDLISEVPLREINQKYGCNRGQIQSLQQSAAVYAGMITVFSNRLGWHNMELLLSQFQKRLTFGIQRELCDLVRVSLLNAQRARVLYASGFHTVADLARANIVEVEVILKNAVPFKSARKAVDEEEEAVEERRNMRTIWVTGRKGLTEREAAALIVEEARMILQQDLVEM

This assay addresses Pol Theta (1-894) (Homo sapiens (Human), UniProt O75417). The assay can be described thus: Biochemical Pol Theta (1-894) ATPase IC50 assay (ADP-Glo, ssDNA substrate). The conditions noted are these: ADP-Glo assay with ssDNA substrate, room temperature. An outline of the steps:
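His-tagged human Pol Theta 1-894 from Sf9 baculovirus cells, 2× enzyme solution at 12.5 nM, assayed with ssDNA substrate at room temperature in 40 mM Tris pH 7.5, 20 mM MgCl2, 1 mM DTT, 0.01% BSA, 0.05% Tween-20.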
For orientation: ADP-Glo turns the ADP formed in a reaction into a luminescent signal.
Turning to `COc1cccc(C)c1-c1cc(C)ncc1C(=O)Nc1nc2ccc(-c3ccc(C#N)cc3)nc2s1` [Example 87, N-(5-(4-cyanophenyl)thiazolo[5,4-b]pyridin-2-yl)-4-(2-methoxy-6-methylphenyl)-6-methylnicotinamide], the IC50 (commonly the concentration that gives 50% inhibition) was found to be 371 nM.
Next, `COc1ccccc1-c1cnncc1C(=O)Nc1nc2ccc(-c3ccc(C(=O)N4CCCC4)cc3)nc2s1` [Example 88, 5-(2-methoxyphenyl)-N-(5-(4-(pyrrolidine-1-carbonyl)phenyl)thiazolo[5,4-b]pyridin-2-yl)pyridazine-4-carboxamide]: 50 nM.
The figure for `COc1ccc(C#N)cc1-c1cc(C)ncc1C(=O)Nc1nc2ccc(-c3ccc(N(C)S(C)(=O)=O)c(C)c3)nc2s1` [Example 89, 4-(5-cyano-2-methoxyphenyl)-6-methyl-N-(5-(3-methyl-4-(N-methylmethylsulfonamido)phenyl)thiazolo[5,4-b]pyridin-2-yl)nicotinamide] is 23 nM; for `COc1ccc(C#N)cc1-c1cc(C)ncc1C(=O)Nc1nc2ccc(-c3ccc(NS(C)(=O)=O)c(F)c3)nc2s1` [Example 90, 4-(5-cyano-2-methoxyphenyl)-N-(5-(3-fluoro-4-(methylsulfonamido)phenyl)thiazolo[5,4-b]pyridin-2-yl)-6-methylnicotinamide] it is 4.1 nM.
Next, `COc1ccccc1-c1cnncc1C(=O)Nc1nc2ccc(-c3ccc(C(=O)N(C)C)cc3)nc2s1` [Example 92, N-(5-(4-(dimethylcarbamoyl)phenyl)thiazolo[5,4-b]pyridin-2-yl)-5-(2-methoxyphenyl)pyridazine-4-carboxamide]: 16 nM; `COc1ccccc1-c1cnncc1C(=O)Nc1nc2ccc(-c3ccc(N4CCCC4=O)cc3)nc2s1` [Example 93, 5-(2-methoxyphenyl)-N-(5-(4-(2-oxopyrrolidin-1-yl)phenyl)thiazolo[5,4-b]pyridin-2-yl)pyridazine-4-carboxamide]: 20 nM.
`CCNC(=O)c1ccc2nc(NC(=O)c3cnncc3-c3ccccc3OC)sc2n1` [Example 94, N-ethyl-2-(5-(2-methoxyphenyl)pyridazine-4-carboxamido)thiazolo[5,4-b]pyridine-5-carboxamide] registered an IC50 of 29 nM.
The figure for `CCOc1ccc2nc(NC(=O)c3cnncc3-c3ccccc3OC)sc2n1` [Example 95, N-(5-ethoxythiazolo[5,4-b]pyridin-2-yl)-5-(2-methoxyphenyl)pyridazine-4-carboxamide] is 72 nM; for `COc1cc(Cl)ccc1-c1ccc2nc(NC(=O)c3cnncc3-c3ccccc3OC)sc2n1` [Example 96, N-(5-(4-chloro-2-methoxyphenyl)thiazolo[5,4-b]pyridin-2-yl)-5-(2-methoxyphenyl)pyridazine-4-carboxamide] it is 60 nM.
In the case of `COc1ccccc1-c1cnncc1C(=O)Nc1nc2ccc(-c3ccc(Cl)cc3C)nc2s1` [Example 97, N-(5-(4-chloro-2-methylphenyl)thiazolo[5,4-b]pyridin-2-yl)-5-(2-methoxyphenyl)pyridazine-4-carboxamide], the midpoint of inhibition, the IC50, lay at 27 nM.
The figure for `COc1ccccc1-c1cnncc1C(=O)Nc1nc2ccc(Oc3ccc(Cl)cc3)nc2s1` [Example 98, N-(5-(4-chlorophenoxy)thiazolo[5,4-b]pyridin-2-yl)-5-(2-methoxyphenyl)pyridazine-4-carboxamide] is 22 nM; for `COc1ccccc1-c1cnncc1C(=O)Nc1nc2ccc(-c3ccc(Cl)cc3C(F)(F)F)nc2s1` [Example 99, N-(5-(4-chloro-2-(trifluoromethyl)phenyl)thiazolo[5,4-b]pyridin-2-yl)-5-(2-methoxyphenyl)pyridazine-4-carboxamide] it is 66 nM; for `COc1ccccc1-c1cnncc1C(=O)Nc1nc2ccc(-c3ccc(Cl)cc3F)nc2s1` [Example 100, N-(5-(4-chloro-2-fluorophenyl)thiazolo[5,4-b]pyridin-2-yl)-5-(2-methoxyphenyl)pyridazine-4-carboxamide] it is 29 nM.
The figure for `COc1ccccc1-c1cnncc1C(=O)Nc1nc2ccc(-c3c(C)cc(Cl)cc3C)nc2s1` [Example 101, N-(5-(4-chloro-2,6-dimethylphenyl)thiazolo[5,4-b]pyridin-2-yl)-5-(2-methoxyphenyl)pyridazine-4-carboxamide] is 35 nM; for `COc1ccccc1-c1cnncc1C(=O)Nc1nc2ccc(-c3ccc(C(=O)NC(C)C)cc3)nc2s1` [Example 102, N-(5-(4-(isopropylcarbamoyl)phenyl)thiazolo[5,4-b]pyridin-2-yl)-5-(2-methoxyphenyl)pyridazine-4-carboxamide] it is 63 nM; for `COc1ccccc1-c1cnncc1C(=O)Nc1nc2ccc(-c3ccc(C(=O)N4CCOCC4)cc3)nc2s1` [Example 103, 5-(2-methoxyphenyl)-N-(5-(4-(morpholine-4-carbonyl)phenyl)thiazolo[5,4-b]pyridin-2-yl)pyridazine-4-carboxamide] it is 83 nM.
As for `COc1cccc(F)c1-c1cc(C)ncc1C(=O)Nc1nc2ccc(-c3ccc(C#N)cc3)nc2s1` [Example 104, N-(5-(4-cyanophenyl)thiazolo[5,4-b]pyridin-2-yl)-4-(2-fluoro-6-methoxyphenyl)-6-methylnicotinamide], it took 6.5 nM to reach half-maximal inhibition (IC50).
The compound `CCOc1ccc(C#N)cc1-c1cc(C)ncc1C(=O)Nc1nc2ccc(-c3ccc(C#N)cc3)nc2s1` [Example 105, 4-(5-cyano-2-ethoxyphenyl)-N-(5-(4-cyanophenyl)thiazolo[5,4-b]pyridin-2-yl)-6-methylnicotinamide] registered an IC50 of 16 nM.
Next, `Cc1cc(-c2cc(C#N)ccc2C)c(C(=O)Nc2nc3ccc(-c4ccc(C#N)cc4)nc3s2)cn1` [Example 106, 4-(5-cyano-2-methylphenyl)-N-(5-(4-cyanophenyl)thiazolo[5,4-b]pyridin-2-yl)-6-methylnicotinamide]: 26 nM.
Next, `COc1ccc(C#N)cc1-c1cc(C)ncc1C(=O)Nc1nc2ccc(CCc3ccc(Cl)cc3)nc2s1` [Example 107, N-(5-(4-chlorophenethyl)thiazolo[5,4-b]pyridin-2-yl)-4-(5-cyano-2-methoxyphenyl)-6-methylnicotinamide]: 17 nM.
The figure for `CCNC(=O)c1ccc(-c2ccc3nc(NC(=O)c4cnncc4-c4ccccc4OC)sc3n2)cc1` [Example 108, N-(5-(4-(ethylcarbamoyl)phenyl)thiazolo[5,4-b]pyridin-2-yl)-5-(2-methoxyphenyl)pyridazine-4-carboxamide] is 19 nM.
On to `COc1ccc(C#N)cc1-c1cc(CO)ncc1C(=O)Nc1nc2ccc(-c3ccc(C#N)cc3)nc2s1` [Example 109, 4-(5-cyano-2-methoxyphenyl)-N-(5-(4-cyanophenyl)thiazolo[5,4-b]pyridin-2-yl)-6-(hydroxymethyl)nicotinamide], for which the midpoint of inhibition, the IC50, lay at 4.7 nM.
Take `COc1ccc(C#N)cc1-c1cc(C)ncc1C(=O)Nc1nc2ccc(-c3ccc(C(N)=O)c(C)c3)nc2s1` [Example 110, N-(5-(4-carbamoyl-3-methylphenyl)thiazolo[5,4-b]pyridin-2-yl)-4-(5-cyano-2-methoxyphenyl)-6-methylnicotinamide]: half-maximal inhibition (IC50) required 5.8 nM.
Next, `COc1ccccc1-c1cnncc1C(=O)Nc1nc2ccc(-c3ccc(NC(=O)CO)cc3)nc2s1` [Example 111, N-(5-(4-(2-hydroxyacetamido)phenyl)thiazolo[5,4-b]pyridin-2-yl)-5-(2-methoxyphenyl)pyridazine-4-carboxamide]: 11 nM.
Compound `COc1ccccc1-c1cnncc1C(=O)Nc1nc2ccc(C(=O)NCCO)nc2s1` [Example 112, N-(2-hydroxyethyl)-2-(5-(2-methoxyphenyl)pyridazine-4-carboxamido)thiazolo[5,4-b]pyridine-5-carboxamide] came in with an IC50 of 60 nM.
`COc1ccccc1-c1cnncc1C(=O)Nc1nc2ccc(C(=O)NC3CCOCC3)nc2s1` [Example 113, 2-(5-(2-methoxyphenyl)pyridazine-4-carboxamido)-N-(tetrahydro-2H-pyran-4-yl)thiazolo[5,4-b]pyridine-5-carboxamide] registered an IC50 of 167 nM.
The figure for `COc1ccccc1-c1cnncc1C(=O)Nc1nc2ccc(OC3CCCC3)nc2s1` [Example 114, N-(5-(cyclopentyloxy)thiazolo[5,4-b]pyridin-2-yl)-5-(2-methoxyphenyl)pyridazine-4-carboxamide] is 99 nM.
`COc1ccc(C#N)cc1-c1cc(C)ncc1C(=O)Nc1nc2ccc(-c3ccc(CNC(C)=O)cc3)nc2s1` [Example 115, N-(5-(4-(acetamidomethyl)phenyl)thiazolo[5,4-b]pyridin-2-yl)-4-(5-cyano-2-methoxyphenyl)-6-methylnicotinamide] showed an IC50 of 7.1 nM.
The compound `COc1ccc(C#N)cc1-c1cc(C)ncc1C(=O)Nc1nc2ccc(-c3ccc(CC#N)cc3)nc2s1` [Example 116, 4-(5-cyano-2-methoxyphenyl)-N-(5-(4-(cyanomethyl)phenyl)thiazolo[5,4-b]pyridin-2-yl)-6-methylnicotinamide] yielded an IC50 of 5.6 nM.
The figure for `COc1ccccc1-c1cnncc1C(=O)Nc1nc2ccc(-c3ccc(Cl)cc3Cl)nc2s1` [Example 117, N-(5-(2,4-dichlorophenyl)thiazolo[5,4-b]pyridin-2-yl)-5-(2-methoxyphenyl)pyridazine-4-carboxamide] is 12 nM.
`COc1ccccc1-c1cnncc1C(=O)Nc1nc2ccc(OCC3CCCO3)nc2s1` (centres unmarked) [Example 118, 5-(2-methoxyphenyl)-N-(5-((tetrahydrofuran-2-yl)methoxy)thiazolo[5,4-b]pyridin-2-yl)pyridazine-4-carboxamide] registered an IC50 of 17 nM.
Next, `COc1cc(C#N)ccc1-c1ccc2nc(NC(=O)c3cnncc3-c3ccccc3OC)sc2n1` [Example 119, N-(5-(4-cyano-2-methoxyphenyl)thiazolo[5,4-b]pyridin-2-yl)-5-(2-methoxyphenyl)pyridazine-4-carboxamide]: 5.2 nM.
